# From patent publication US10131652B2, “Pyrimidinyloxy benzene derivatives as herbicides” (E. I. DU PONT DE NEMOURS AND COMPANY, priority 2014, dated 2018)
# Like-named read-outs stand apart in the source and are kept apart here.
# What was measured:
# Assay in all cases: Test E pre-/postemergence plant response
# Format in all cases: in vivo
# [1] = test system: spring barley (Hordeum vulgare); details: for plant injury at 16 g/ha: 16 g ai/ha; for plant injury at 31 g/ha: 31 g ai/ha; for plant injury at 62 g/ha: 62 g ai/ha; for plant injury at 125 g/ha: 125 g ai/ha
# Procedure, shortened: (§1)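 Visual scores on a 0–100 scale (100 = complete control) were assigned against untreated controls 7–21 days after treatment in a controlled environment. Compounds, formulated with solvent plus surfactant, were applied to pre-emergence silt-loam sowings or to 1- to 4-leaf plants (2–18 cm) in potting medium.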
# [2] = test system: wild radish (Raphanus raphanistrum); details: scale 0 to 100, read-out: Plant response rating, Radish, Wild; for pest or weed control at 16 g/ha: 16 g ai/ha; for pest or weed control at 31 g/ha: 31 g ai/ha; for pest or weed control at 62 g/ha: 62 g ai/ha; for pest or weed control at 125 g/ha: 125 g ai/ha
# Procedure, shortened: as §1
# [3] = test system: winter wheat (Triticum aestivum); details: scale 0 to 100, read-out: Plant response rating, Wheat, Winter; for plant injury at 16 g/ha: 16 g ai/ha; for plant injury at 62 g/ha: 62 g ai/ha; for plant injury at 125 g/ha: 125 g ai/ha
# Procedure, shortened: as §1
# [4] = test system: spring wheat (Triticum aestivum); details: scale 0 to 100, read-out: Plant response rating, Wheat, Spring; for plant injury at 16 g/ha: 16 g ai/ha; for plant injury at 62 g/ha: 62 g ai/ha; for plant injury at 125 g/ha: 125 g ai/ha
# Procedure, shortened: as §1
# [5] = test system: Italian ryegrass (Lolium multiflorum); details: scale 0 to 100, read-out: Plant response rating, Ryegrass, Italian; for pest or weed control at 16 g/ha: 16 g ai/ha; for pest or weed control at 31 g/ha: 31 g ai/ha; for pest or weed control at 62 g/ha: 62 g ai/ha; for pest or weed control at 125 g/ha: 125 g ai/ha
# Procedure, shortened: as §1
# [6] = test system: speedwell (bird's-eye speedwell, Veronica persica); details: scale 0 to 100, read-out: Plant response rating, Speedwell; for pest or weed control at 16 g/ha: 16 g ai/ha; for pest or weed control at 62 g/ha: 62 g ai/ha; for pest or weed control at 125 g/ha: 125 g ai/ha
# Procedure, shortened: as §1
# [7] = test system: chickweed (common chickweed, Stellaria media); details: scale 0 to 100, read-out: Plant response rating, Chickweed; for pest or weed control at 16 g/ha: 16 g ai/ha; for pest or weed control at 31 g/ha: 31 g ai/ha; for pest or weed control at 62 g/ha: 62 g ai/ha; for pest or weed control at 125 g/ha: 125 g ai/ha
# Procedure, shortened: as §1
# [8] = test system: lambsquarters (Chenopodium album); details: scale 0 to 100, read-out: Plant response rating, Lambsquarters; for pest or weed control at 16 g/ha: 16 g ai/ha; for pest or weed control at 31 g/ha: 31 g ai/ha; for pest or weed control at 62 g/ha: 62 g ai/ha; for pest or weed control at 125 g/ha: 125 g ai/ha
# Procedure, shortened: as §1
# [9] = test system: field violet (Viola arvensis); details: scale 0 to 100, read-out: Plant response rating, Field Violet; for pest or weed control at 16 g/ha: 16 g ai/ha; for pest or weed control at 31 g/ha: 31 g ai/ha; for pest or weed control at 62 g/ha: 62 g ai/ha; for pest or weed control at 125 g/ha: 125 g ai/ha
# Procedure, shortened: as §1
# [10] = test system: galium (catchweed bedstraw, Galium aparine); details: scale 0 to 100, read-out: Plant response rating, Galium; for pest or weed control at 16 g/ha: 16 g ai/ha; for pest or weed control at 31 g/ha: 31 g ai/ha; for pest or weed control at 62 g/ha: 62 g ai/ha; for pest or weed control at 125 g/ha: 125 g ai/ha
# Procedure, shortened: as §1
# [11] = test system: bluegrass (annual bluegrass, Poa annua); details: scale 0 to 100, read-out: Plant response rating, Bluegrass; for pest or weed control at 16 g/ha: 16 g ai/ha; for pest or weed control at 31 g/ha: 31 g ai/ha; for pest or weed control at 62 g/ha: 62 g ai/ha; for pest or weed control at 125 g/ha: 125 g ai/ha
# Procedure, shortened: as §1
# [12] = post-emergence, Postemergence, scale 0 to 100, read-out: Plant response rating, Barley, Spring
# [13] = pre-emergence, Preemergence, scale 0 to 100, read-out: Plant response rating, Barley, Spring
# [14] = post-emergence, 31 g ai/ha, Postemergence
compound,measurement,setting,value
"FC(F)c1cc(-c2ccccc2Oc2ncc(Cl)cn2)on1 [Compound 53, 5-chloro-2-[2-[3-(difluoromethyl)-5-isoxazolyl]phenoxy]pyrimidine]",plant injury at 16 g/ha,[1]; [12],5%
same,plant injury at 31 g/ha,[1]; [12],5%
same,plant injury at 62 g/ha,[1]; [12],10%
same,plant injury at 125 g/ha,"[1]; post-emergence, Postemergence, scale 0 to 100 (0 no effect, 100 complete control), read-out: Plant response rating, Barley, Spring",10%
same,plant injury at 16 g/ha,[1]; [13],35%
same,plant injury at 31 g/ha,[1]; [13],35%
same,plant injury at 62 g/ha,[1]; [13],35%
same,plant injury at 125 g/ha,[1]; [13],35%
same,pest or weed control at 16 g/ha,"[2]; post-emergence, Postemergence",60%
same,pest or weed control at 31 g/ha,"[2]; post-emergence, Postemergence",60%
same,pest or weed control at 62 g/ha,"[2]; post-emergence, Postemergence",90%
same,pest or weed control at 125 g/ha,"[2]; post-emergence, Postemergence",90%
same,pest or weed control at 16 g/ha,"[2]; pre-emergence, Preemergence",50%
same,pest or weed control at 31 g/ha,"[2]; pre-emergence, Preemergence",70%
same,pest or weed control at 62 g/ha,"[2]; pre-emergence, Preemergence",100%
same,pest or weed control at 125 g/ha,"[2]; pre-emergence, Preemergence",90%
same,plant injury at 16 g/ha,"[3]; post-emergence, Postemergence",5%
same,plant injury at 31 g/ha,[3]; [14],5%
same,plant injury at 62 g/ha,"[3]; post-emergence, Postemergence",15%
same,plant injury at 125 g/ha,"[3]; post-emergence, Postemergence",35%
same,plant injury at 16 g/ha,"[3]; pre-emergence, Preemergence",15%
same,plant injury at 62 g/ha,"[3]; pre-emergence, Preemergence",25%
same,plant injury at 125 g/ha,"[3]; pre-emergence, Preemergence",30%
same,plant injury at 16 g/ha,"[4]; post-emergence, Postemergence",10%
same,plant injury at 31 g/ha,[4]; [14],10%
same,plant injury at 62 g/ha,"[4]; post-emergence, Postemergence",20%
same,plant injury at 125 g/ha,"[4]; post-emergence, Postemergence",35%
same,plant injury at 16 g/ha,"[4]; pre-emergence, Preemergence",5%
same,plant injury at 62 g/ha,"[4]; pre-emergence, Preemergence",10%
same,plant injury at 125 g/ha,"[4]; pre-emergence, Preemergence",10%
same,pest or weed control at 16 g/ha,"[5]; post-emergence, Postemergence",0%
same,pest or weed control at 31 g/ha,"[5]; post-emergence, Postemergence",0%
same,pest or weed control at 62 g/ha,"[5]; post-emergence, Postemergence",5%
same,pest or weed control at 125 g/ha,"[5]; post-emergence, Postemergence",5%
same,pest or weed control at 16 g/ha,"[5]; pre-emergence, Preemergence",10%
same,pest or weed control at 31 g/ha,"[5]; pre-emergence, Preemergence",10%
same,pest or weed control at 62 g/ha,"[5]; pre-emergence, Preemergence",25%
same,pest or weed control at 125 g/ha,"[5]; pre-emergence, Preemergence",25%
same,pest or weed control at 16 g/ha,"[6]; post-emergence, Postemergence",60%
same,pest or weed control at 31 g/ha,[6]; [14],60%
same,pest or weed control at 62 g/ha,"[6]; post-emergence, Postemergence",95%
same,pest or weed control at 125 g/ha,"[6]; post-emergence, Postemergence",100%
same,pest or weed control at 16 g/ha,"[6]; pre-emergence, Preemergence",100%
same,pest or weed control at 62 g/ha,"[6]; pre-emergence, Preemergence",100%
same,pest or weed control at 125 g/ha,"[6]; pre-emergence, Preemergence",100%
same,pest or weed control at 16 g/ha,"[7]; post-emergence, Postemergence",30%
same,pest or weed control at 31 g/ha,"[7]; post-emergence, Postemergence",50%
same,pest or weed control at 62 g/ha,"[7]; post-emergence, Postemergence",60%
same,pest or weed control at 125 g/ha,"[7]; post-emergence, Postemergence",65%
same,pest or weed control at 16 g/ha,"[7]; pre-emergence, Preemergence",100%
same,pest or weed control at 31 g/ha,"[7]; pre-emergence, Preemergence",100%
same,pest or weed control at 62 g/ha,"[7]; pre-emergence, Preemergence",100%
same,pest or weed control at 125 g/ha,"[7]; pre-emergence, Preemergence",100%
same,pest or weed control at 16 g/ha,"[8]; post-emergence, Postemergence",65%
same,pest or weed control at 31 g/ha,"[8]; post-emergence, Postemergence",70%
same,pest or weed control at 62 g/ha,"[8]; post-emergence, Postemergence",65%
same,pest or weed control at 125 g/ha,"[8]; post-emergence, Postemergence",75%
same,pest or weed control at 16 g/ha,"[8]; pre-emergence, Preemergence",60%
same,pest or weed control at 31 g/ha,"[8]; pre-emergence, Preemergence",75%
same,pest or weed control at 62 g/ha,"[8]; pre-emergence, Preemergence",100%
same,pest or weed control at 125 g/ha,"[8]; pre-emergence, Preemergence",100%
same,pest or weed control at 16 g/ha,"[9]; post-emergence, Postemergence",25%
same,pest or weed control at 31 g/ha,"[9]; post-emergence, Postemergence",50%
same,pest or weed control at 62 g/ha,"[9]; post-emergence, Postemergence",70%
same,pest or weed control at 125 g/ha,"[9]; post-emergence, Postemergence",70%
same,pest or weed control at 16 g/ha,"[9]; pre-emergence, Preemergence",50%
same,pest or weed control at 31 g/ha,"[9]; pre-emergence, Preemergence",25%
same,pest or weed control at 62 g/ha,"[9]; pre-emergence, Preemergence",60%
same,pest or weed control at 125 g/ha,"[9]; pre-emergence, Preemergence",100%
same,pest or weed control at 16 g/ha,"[10]; post-emergence, Postemergence",75%
same,pest or weed control at 31 g/ha,"[10]; post-emergence, Postemergence",75%
same,pest or weed control at 62 g/ha,"[10]; post-emergence, Postemergence",75%
same,pest or weed control at 125 g/ha,"[10]; post-emergence, Postemergence",75%
same,pest or weed control at 16 g/ha,"[10]; pre-emergence, Preemergence",25%
same,pest or weed control at 31 g/ha,"[10]; pre-emergence, Preemergence",30%
same,pest or weed control at 62 g/ha,"[10]; pre-emergence, Preemergence",60%
same,pest or weed control at 125 g/ha,"[10]; pre-emergence, Preemergence",100%
same,pest or weed control at 16 g/ha,"[11]; post-emergence, Postemergence",0%
same,pest or weed control at 31 g/ha,"[11]; post-emergence, Postemergence",0%
same,pest or weed control at 62 g/ha,"[11]; post-emergence, Postemergence",5%
same,pest or weed control at 125 g/ha,"[11]; post-emergence, Postemergence",5%
same,pest or weed control at 16 g/ha,"[11]; pre-emergence, Preemergence",10%
same,pest or weed control at 31 g/ha,"[11]; pre-emergence, Preemergence",10%
same,pest or weed control at 62 g/ha,"[11]; pre-emergence, Preemergence",20%
same,pest or weed control at 125 g/ha,"[11]; pre-emergence, Preemergence",25%
